Here are results for twelve compounds from patent publication US9714266B2, “Estra-1,3,5(10),16-tetraene-3-carboxamides for inhibition of 17β-hydroxysteroid dehydrogenase (AKR1C3)” (priority 2013, dated 2017).

Converted amounts (≈) assume the structure as drawn. “And” between values parts separate entries of the source, which are not always exact repeats. Identical values can stand only once. Like-named read-outs stand apart in the source and are kept apart here.

Data set [1] has as its target T1, AKR1C3 (Homo sapiens (Human), UniProt P42330). Kind of data set: AKR1C3 enzyme assay (coumberone reduction, fluorescence). Format: biochemical. Particulars: recombinant human AKR1C3, coumberone 0.3 μM, NADPH 10 μM; read-out: AKR1C3 enzyme inhibition IC50. As for the experimental part:
The AKR1C3-inhibitory action of the substances of this invention was measured in the AKR1C3 assay described in the paragraphs which follow. Essentially, the enzyme activity is measured by quantifying the coumberol formed from coumberone ([…]., and […]. AM. CHEM. SOC. 130, 14123-14128 (2008) […]., Bauman, D. R., Penning, T. M., and […]., Proc. Natl. Acad. Sci. USA 103, 13304-13309 (2006)). In this assay, the increase in the highly fluorescent coumberol can be determined by NADPH (nicotinamide adenine dinucleotide phosphate)-dependent reduction of the nonfluorescent coumberone by AKR1C3. […] NM_003739). This was expressed as the GST (glutathione S-transferase) fusion protein in E. coli and purified by means of glutathione-Sepharose affinity chromatography. The GST was removed by thrombin digestion with subsequent size exclusion chromatography (Dufort, I., Rheault, P., Huang, X F., Soucy, P., and Luu-The, V., Endocrinology 140, 568-574 (1999)). […] The concentration of the AKR1C3 was matched to the respective activity of the enzyme preparation and set such that the assay worked within the linear range. Typical concentrations were in the region of 1 nM. The reaction was stopped by adding 5 μl of a stop solution consisting of the inhibitor EM-1404 [F. Labrie et al. U.S. Pat. […] Subsequently, the fluorescence of coumberol was measured at 520 nm (excitation at 380 nm) with a suitable measuring instrument (Pherastar from BMG Labtechnologies).

The target of data set [2] is T1, AKR1C3. Kind of data set: AKR1C3 inhibition in a cell-based system (transfected HEK293 cells, coumberol fluorescence). As to conditions: HEK293 cells transfected with AKR1C3 expression plasmid; read-out: Cellular AKR1C3 inhibition IC50. As for the experimental part:
The inhibition of AKR1C3 by the substances described in this invention was measured in a cell-based assay using […] as the substrate for the AKR1C3 (Halim, M., Yee, D. J., and Sames, D., J. AM. CHEM. SOC. 130, 14123-14128 (2008) and Yee, D. J., Balsanek, V., Bauman, D. R., Penning, T. M., and Sames, D., Proc. Natl. Acad. Sci. USA 103, 13304-13309 (2006)) (cf. Example 48).
The cell system used was HEK293 cells (ATCC, USA) (cell culture medium: DMEM, 1.5 g of glucose, 10% FCS, PSG). The cells were transfected with an AKR1C3 expression plasmid (pCMV6-AC-AKR1C3, GenBank Accession No. NM_003739.4) overnight (X-tremeGENE HP, Roche). The next morning, the cells were sown into black 96-well culture plates with a cell density of 40 000 cells/well (Greiner Bio-One, Frickenhausen, Germany). 7 h later, the cells were incubated with the test substances (dissolved in 100× concentration in DMSO, final concentration between 10^−11M and 10^−5M) and […] (dissolved in cell culture medium, final concentration 5×10^−6M) overnight. The following morning, the fluorescence of coumberol was measured at 535 nm (excitation at 355 nm) with a suitable measuring instrument (Mithras, from Berthold). […] The data were normalized (transfected cells without inhibitor, only DMSO=0% inhibition; transfected cells, 10 μM EM-1404 inhibitor [F. Labrie et al. U.S. Pat. No. 6,541,463, 2003]=100% inhibition) and IC50 values were calculated by a 4-parameter fit.

A further data set addresses recombinant human AKR1C2 (Homo sapiens (Human), UniProt P52895). Kind of data set: AKR1C2 inhibition (NADPH consumption, phenanthrenequinone). Format: biochemical. As for the experimental part:
(§1) The AKR1C1/AKR1C2/AKR1C4-inhibitory action of the inventive substances, for determination of the selectivity of this invention, was measured in the assay described in the paragraphs which follow. Essentially, the enzyme activity is measured by the quantification of NADPH (nicotinamide adenine dinucleotide phosphate) consumption in the conversion of phenanthrenequinone (PQ) by the AKR1C enzymes. […] NM_001353.5, NM_001354, NM_001818). This was expressed as the GST (glutathione S-transferase) fusion protein in E. coli and purified by means of glutathione-Sepharose affinity chromatography. The GST was removed by thrombin digestion with subsequent size exclusion chromatography (Dufort, I., Rheault, P., Huang, X F., Soucy, P., and Luu-The, V., Endocrinology 140, 568-574 (1999)). […] The mixture was incubated at 37° C. for 3 h, and the fluorescence was determined at the end of the reaction. […] Typically, the test substances were tested on the same microtitre plate in […] in the range from 10 μM to 1 pM (10 μM, 1 μM, 100 nM, 10 nM, 1 nM, 100 pM, 10 pM, 1 pM). As described, the pharmacological substances claimed were tested for their inhibitory effect on AKR1C enzymes 1, 2 and 4 (see Table 4).

The target in another data set is recombinant human AKR1C4 (Homo sapiens (Human), UniProt P17516). Kind of data set: AKR1C4 inhibition (NADPH consumption, phenanthrenequinone). Format: biochemical. As for the experimental part: as §1
Sequence of recombinant human AKR1C4 (P17516 whole entry): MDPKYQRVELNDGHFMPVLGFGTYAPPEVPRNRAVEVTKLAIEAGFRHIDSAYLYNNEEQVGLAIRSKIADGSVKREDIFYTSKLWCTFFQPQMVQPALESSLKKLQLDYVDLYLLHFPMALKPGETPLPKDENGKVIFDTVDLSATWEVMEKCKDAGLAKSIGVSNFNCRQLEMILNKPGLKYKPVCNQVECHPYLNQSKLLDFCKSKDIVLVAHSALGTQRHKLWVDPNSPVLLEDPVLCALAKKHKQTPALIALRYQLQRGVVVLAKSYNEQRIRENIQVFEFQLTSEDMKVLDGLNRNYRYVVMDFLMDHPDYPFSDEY
In another data set the target is recombinant human AKR1C1 (Homo sapiens (Human), UniProt Q04828). Kind of data set: AKR1C1 inhibition (NADPH consumption, phenanthrenequinone). Format: biochemical. As for the experimental part:
as §1

Data set [3] in a line: Kinetic solubility by laser nephelometry. The class given is physicochemical. Particulars: kinetic from dmso stock. As for the experimental part: The kinetic solubilities of the inventive substances were determined by laser nephelometry.
The data were recorded using the following instruments:
Liquid handling system: Hamilton Star
Nephelometer: Nepheloskan Ascent
The following chemicals and materials were used: […]
disodium hydrogenphosphate dihydrate potassium dihydrogenphosphate
Preparation of phosphate buffer pH 7.4:
• Solution 1: 9.71 g of disodium hydrogenphosphate dihydrate and • 1.65 g of potassium dihydrogenphosphate dissolved in 1 liter of water • Solution 2: 10 mg of gum arabic dissolved in 1 liter of water […]
150 ml of solution 1 and 100 ml of solution 2 were diluted with 750 ml of water.
150 μl of a 10 mM DMSO stock solution were pipetted into a plate (deep-well plate, Abgene, PP, 1.2 ml). The stock solution was diluted with DMSO, which led to a new multi-titre plate (MTP, Greiner bio-one, PS, V-Form) with eight concentrations: 10/5/2.5/1.25/0.625/0.313/0.156 and 0.078 mM. 261 μl of phosphate buffer were transferred into a further plate (96 cliniplate, UB Thermo Electron Corporation) and admixed with 9 μl of the DMSO stock solutions.
The concentration of the DMSO cosolvent was kept constant at 3%.
The plates obtained (cliniplates) were analysed in the nephelometer.

A further data set has as its target Human CYP17A1 (Homo sapiens (Human), UniProt P05093). Kind of data set: Inhibition of Cyp17A1 (recombinant enzyme, 3H-progesterone conversion, HPLC). As to conditions: up to a substance concentration of 20 μM where stated. The class given is biochemical. As for the experimental part:
The inhibition of CYP17A1 by the test compounds was evaluated by means of recombinant enzyme. Human CYP17A1 was expressed in E. coli (Ehmer, P. B. et al.; J. Steroid Biochem. Mol. […] After evaporating the organic phase, the steroids were taken up in acetonitrile. 16α-Hydroxyprogesterone, 17α-hydroxyprogesterone and progesterone were separated with acetonitrile/water (45:55) as mobile phase on a C18 reverse phase chromatography column (Nucleodur C18 Gravity, 3 μm, Macherey-Nagel, Düren) in an HPLC System (Agilent 1100 Series, Agilent Technologies, Waldbronn). Detection and quantification of the steroids were conducted by means of a Radioflow detector (Berthold Technologies, Bad Wildbad). The inhibition was calculated by the following formula: [formula] Each value was calculated from at least three independent experiments.

The mark [4] stands for this setting: phosphate buffer with 3% DMSO, aqueous buffer, phosphate buffer pH 7.4, 3% DMSO, read-out: Nephelometric solubility at pH = 7.4.

One may read the IC50 as the concentration that gives 50% inhibition. Usually solubility stands for the concentration that dissolves in the medium under given conditions.

T1 sequence (P42330 whole entry): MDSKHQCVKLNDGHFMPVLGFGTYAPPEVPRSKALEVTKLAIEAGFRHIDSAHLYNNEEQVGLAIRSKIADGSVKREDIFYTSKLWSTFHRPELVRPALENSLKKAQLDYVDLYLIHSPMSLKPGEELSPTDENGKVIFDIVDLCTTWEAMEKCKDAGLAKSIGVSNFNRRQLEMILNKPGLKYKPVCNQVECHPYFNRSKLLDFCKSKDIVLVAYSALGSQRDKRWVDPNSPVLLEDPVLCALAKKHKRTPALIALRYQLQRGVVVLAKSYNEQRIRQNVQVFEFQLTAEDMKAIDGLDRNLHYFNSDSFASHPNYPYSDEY
Sequence of recombinant human AKR1C2 (P52895 whole entry, the tested form may be a part): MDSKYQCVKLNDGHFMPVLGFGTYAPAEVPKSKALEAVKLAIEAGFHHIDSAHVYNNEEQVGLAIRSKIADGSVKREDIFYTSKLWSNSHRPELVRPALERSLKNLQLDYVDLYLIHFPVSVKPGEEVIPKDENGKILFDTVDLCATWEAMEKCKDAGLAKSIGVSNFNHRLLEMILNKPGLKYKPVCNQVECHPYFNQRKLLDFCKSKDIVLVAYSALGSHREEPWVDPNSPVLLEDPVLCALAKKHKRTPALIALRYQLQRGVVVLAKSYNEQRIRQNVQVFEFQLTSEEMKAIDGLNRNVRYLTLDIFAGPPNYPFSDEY
Sequence of recombinant human AKR1C1 (Q04828 whole entry): as the sequence (P52895 whole entry, the tested form may be a part) above, with V38T, H47R, V54L, S87C, M151V, H170R, L172Q counted along it
Sequence of Human CYP17A1 (P05093 whole entry): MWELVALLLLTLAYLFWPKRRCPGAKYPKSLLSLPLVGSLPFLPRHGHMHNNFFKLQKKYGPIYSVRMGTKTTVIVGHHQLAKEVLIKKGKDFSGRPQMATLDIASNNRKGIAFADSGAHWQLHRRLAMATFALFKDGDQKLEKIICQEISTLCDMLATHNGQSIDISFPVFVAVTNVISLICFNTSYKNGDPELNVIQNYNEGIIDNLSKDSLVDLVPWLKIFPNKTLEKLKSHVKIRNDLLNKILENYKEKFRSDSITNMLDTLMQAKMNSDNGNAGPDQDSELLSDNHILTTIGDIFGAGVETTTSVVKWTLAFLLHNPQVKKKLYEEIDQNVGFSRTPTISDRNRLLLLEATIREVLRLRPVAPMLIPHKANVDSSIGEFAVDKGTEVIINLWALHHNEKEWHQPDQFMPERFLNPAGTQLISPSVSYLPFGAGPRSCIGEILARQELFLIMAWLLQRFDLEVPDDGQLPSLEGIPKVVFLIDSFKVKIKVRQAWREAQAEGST

Turning to `C[C@@H](CO)CCNC(=O)c1ccc2c(c1)CC[C@@H]1[C@@H]2CC[C@]2(C)C(c3cncc(F)c3)=CC[C@@H]12` [Example 12, 17-(5-fluoropyridin-3-yl)-N—[(R)-3-(hydroxymethyl)butyl]estra-1,3,5(10),16-tetraene-3-carboxamide], the IC50 at AKR1C3 [1] is 21 nM and 20 nM; at AKR1C3 [2] it was 68 nM and 96 nM and 43 nM and 23 nM.
As to `C[C@]12CC[C@@H]3c4ccc(C(=O)N5CCC[C@@H](O)C5)cc4CC[C@H]3[C@@H]1CC=C2c1cncc(F)c1` [Example 17, 17-(5-fluoropyridin-3-yl)oestra-1,3,5(10),16-tetraen-3-yl (R)-3-hydroxypiperidin-1-yl ketone], the IC50 is 29 nM and 20 nM on AKR1C3 [1]; 34 nM and 28 nM at AKR1C3 [2].
With `O=C1OC(c2ccc(O)cc2)(c2ccc(O)cc2)c2ccccc21` [phenolphthalein], the “Inhibition of AKR1C2 (in words)” value on recombinant human AKR1C2 is “shows inhibition”. The IC50 was 554 nM and 438 nM on recombinant human AKR1C2 (tested up to 10 μM, read-out: AKR1C2 enzyme inhibition IC50); 21 nM and 17 nM at recombinant human AKR1C4 (tested up to 10 μM, read-out: AKR1C4 enzyme inhibition IC50); 46 nM and 60 nM at recombinant human AKR1C1 (tested up to 10 μM, read-out: AKR1C1 enzyme inhibition IC50). For the same compound, on recombinant human AKR1C4, the “Inhibition of AKR1C4 (in words)” value is “shows inhibition”. The “Inhibition of AKR1C1 (in words)” value on recombinant human AKR1C1 is “shows inhibition”.
On to `CN(CC(O)CO)C(=O)c1ccc2c(c1)CC[C@@H]1[C@@H]2CC[C@]2(C)C(c3cncc(F)c3)=CC[C@@H]12` (mixture of isomers) [Example 35, N—[(RS)-2,3-dihydroxypropyl]-17-(5-fluoropyridin-3-yl)-N-methyloestra-1,3,5(10),16-tetraene-3-carboxamide], for which the IC50 at AKR1C3 [1] is 17 nM. Besides, the solubility in data set [3] (setting [4]) was determined as 22 µg/mL.
As for `C[C@@H](O)CNC(=O)c1ccc2c(c1)CC[C@@H]1[C@@H]2CC[C@]2(C)C(c3cncc(F)c3)=CC[C@@H]12` [Example 38, 17-(5-fluoropyridin-3-yl)-N—[(R)-2-hydroxypropyl]oestra-1,3,5(10),16-tetraene-3-carboxamide], the IC50 on AKR1C3 [1] came to 4 nM. The concentration in solution in data set [3] (pH 7.4, aqueous buffer) (solubility) was 145 µg/mL (≈ 334 µM).
As to `CNC(=O)[C@@H]1CCCN1C(=O)c1ccc2c(c1)CC[C@@H]1[C@@H]2CC[C@]2(C)C(c3cncc(F)c3)=CC[C@@H]12` [Example 29, 1-{[17-(5-fluoropyridin-3-yl)oestra-1,3,5(10),16-tetraen-3-yl]carbonyl}-N-methyl-L-prolinamide], the IC50 on AKR1C3 [1] amounted to 10 nM. In addition, the solubility in data set [3] (pH 7.4, aqueous buffer) is 24 µg/mL (≈ 49.2 µM).
As for `C[C@]12CC[C@H](O)CC1=CC[C@@H]1[C@@H]2CC[C@]2(C)C(c3cccnc3)=CC[C@@H]12` [Abiraterone, reference compound], the “Inhibition of Cyp17A1 (in words)” value at Human CYP17A1 is reported as “active”.
With `C[C@]12CC[C@@H]3c4ccc(C(N)=O)cc4CC[C@H]3[C@@H]1CC=C2c1cccnc1` [Example 1, 17-(pyridin-3-yl)oestra-1,3,5(10),16-tetraene-3-carboxamide], the “Inhibition of AKR1C2 (in words)” value on recombinant human AKR1C2 is recorded as “no inhibition”. For the same compound, at recombinant human AKR1C2 (tested up to 10 μM), the “AKR1C2 enzyme inhibition IC50” value is recorded as “no effect”. Besides, the IC50 on AKR1C3 [1] is 5 nM and 6 nM; at AKR1C3 [2] it was 27 nM and 28 nM and 66 nM and 13 nM. For the same compound, the “Inhibition of AKR1C4 (in words)” value on recombinant human AKR1C4 was “no inhibition”. On recombinant human AKR1C4 (tested up to 10 μM), the “AKR1C4 enzyme inhibition IC50” value was “no effect”. In addition, on recombinant human AKR1C1, the “Inhibition of AKR1C1 (in words)” value was “no inhibition”. The “AKR1C1 enzyme inhibition IC50” value on recombinant human AKR1C1 (tested up to 10 μM) is “no effect”.
Turning to `CC(C)[C@H](CO)NC(=O)c1ccc2c(c1)CC[C@@H]1[C@@H]2CC[C@]2(C)C(c3cncc(F)c3)=CC[C@@H]12` [Example 16, 17-(5-fluoropyridin-3-yl)-N—[(R)-1-(hydroxymethyl)-2-methylpropyl]oestra-1,3,5(10),16-tetraene-3-carboxamide], the IC50 at AKR1C3 [1] was 15 nM and 42 nM; at AKR1C3 [2], 97 nM and 74 nM.
Regarding `C[C@]12CC[C@@H]3c4ccc(C(=O)NCc5nnn[nH]5)cc4CC[C@H]3[C@@H]1CC=C2c1cncc(F)c1` [Example 22, 17-(5-fluoropyridin-3-yl)-N-(1H-tetrazol-5-ylmethyl)oestra-1,3,5(10),16-tetraene-3-carboxamide], the IC50 on AKR1C3 [1] was determined as 5 nM. Besides, the concentration in solution in data set [3] (pH 7.4, aqueous buffer) (solubility) came to 153 µg/mL (≈ 334 µM).
Take `C[C@]12C[C@H](F)[C@@H]3c4ccc(C(N)=O)cc4CC[C@H]3[C@@H]1CC=C2c1cncc(F)c1` [Example 7, 11β-fluoro-17-(5-fluoropyridin-3-yl)oestra-1,3,5(10),16-tetraene-3-carboxamide]: the IC50 on AKR1C3 [1] is 27 nM; at AKR1C3 [2], 83 nM and 150 nM.
Consider `C[C@]12CC[C@@H]3c4ccc(C(=O)NC[C@H](O)CO)cc4CC[C@H]3[C@@H]1CC=C2c1cncc(F)c1` [Example 33, N—[(S)-2,3-dihydroxypropyl]-17-(5-fluoropyridin-3-yl)oestra-1,3,5(10),16-tetraene-3-carboxamide], for which the IC50 on AKR1C3 [1] is 4 nM and 5 nM. Moreover, the solubility in data set [3] (setting [4]) turned out to be 80 µg/mL (≈ 178 µM).
